Results on 12 molecules are retold here after patent publication US9096593B2, “Compounds and methods for kinase modulation, and indications therefor” (Plexxikon Inc., priority 2009, dated 2015).

Data set [1] addresses Flt-3 kinase (Homo sapiens (Human), UniProt P36888). The experiment in a line: Flt-3 kinase biochemical activity assay (AlphaScreen, biotin-(E4Y)10 phosphorylation). The settings on record: 100 μM ATP. The procedure: In one assay the biochemical activity IC50 values are determined with respect to inhibition of Flt-3 kinase activity, where inhibition of phosphorylation of a peptide substrate is measured as a function of compound concentration. Compounds to be tested, dissolved in DMSO (1 μL), are added to a white 384-well plate (Costar #3705). Working stocks of Flt-3 kinase (Invitrogen), biotin-(E4Y)10 substrate (Upstate Biotech, Cat#12-440), and ATP (Sigma, Cat#A-3377) are prepared in 25 mM Hepes pH 7.5, 5 mM MgCl2, 5 mM MnCl2, 1 mM DTT, and 0.01% Tween-20. All components are added to the 384-well plate for a final concentration of 1 ng/well Flt-3, 30 nM biotin-(E4Y)10 and 100 μM ATP in a volume of 20 μL. Each sample is at 5% DMSO. The plate is then incubated for 1 hour at room temperature. Just before use, working stocks of donor and acceptor beads from the AlphaScreen PY20 Detection Kit (PerkinElmer, Cat#676601M) are prepared in 25 mM Hepes pH 7.5, pH 7.4, 100 mM EDTA. 0.3% BSA. To stop the reaction, the plate is uncovered in the dark and 5 μL of Donor Beads solution (Streptavidin beads) is added to each well. The plate is incubated at room temperature for 20 minutes. Five microliters of Acceptor Beads solution (PY20 coated beads) are then added to each well. The final concentration of each bead is 10 μg/mL. The plates are incubated at room temperature for 60 minutes. Fluorescence signal is recorded on the Envision reader. Phosphorylated substrate results in binding of the PY20 antibody and association of the donor and acceptor beads such that signal correlates with kinase activity. The signal vs. compound concentration is used to determine the IC50.
A general note: Bead proximity is the source of the signal in Alpha formats.

Data set [2] in a line: Turbidity assay of relative solubility in aqueous buffers. The settings on record: for turbidity threshold (L, M, H) 1.4: pH 1.4 as headed (method: SGF pH 1.5); for turbidity threshold (L, M, H) 4.5: pH 4.5 (SIF); for turbidity threshold (L, M, H) 6.8: pH 6.8 (SIF); for turbidity threshold (L, M, H) 7.4: pH 7.4 (HEPES). It is filed as physicochemical. The procedure, abridged: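 DMSO stocks (25 mM) were serially diluted 1:1 and spiked into SGF pH 1.5 (0.5M NaCl), SIF pH 4.5 and 6.8 (0.05M NaH2PO4) or HEPES pH 7.4 (10 mM HEPES, 150 mM NaCl). Absorbance was read at 490, 535 and 650 nm. Value is the concentration crossing OD 0.01, averaged over the three wavelengths.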

For data set [3], the target named is CYP2C19 (Homo sapiens (Human), UniProt P33261). The experiment in a line: CYP enzyme inhibition, fluorescent substrate. Put shortly: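 […]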
Chain of CYP2C19 (P33261 whole entry): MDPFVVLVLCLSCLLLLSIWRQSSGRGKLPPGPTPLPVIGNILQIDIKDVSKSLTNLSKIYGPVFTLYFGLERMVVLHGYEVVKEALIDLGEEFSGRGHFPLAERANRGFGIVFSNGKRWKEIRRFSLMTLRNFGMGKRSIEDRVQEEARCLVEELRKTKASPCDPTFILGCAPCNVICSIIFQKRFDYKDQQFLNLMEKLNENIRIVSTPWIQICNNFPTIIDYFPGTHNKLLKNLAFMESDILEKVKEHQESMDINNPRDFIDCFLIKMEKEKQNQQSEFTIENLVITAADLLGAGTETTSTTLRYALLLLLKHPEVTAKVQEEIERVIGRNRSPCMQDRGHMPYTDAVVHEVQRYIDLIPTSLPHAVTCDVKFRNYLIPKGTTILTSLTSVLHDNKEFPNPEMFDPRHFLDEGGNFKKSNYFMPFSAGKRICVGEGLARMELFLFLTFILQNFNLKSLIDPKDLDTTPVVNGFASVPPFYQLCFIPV

Structures are written as SMILES. Where two headings read alike, the source gives them in different places. Where only a bound is given, the exact number is not on record here.

Chain of Flt-3 kinase (P36888 27-993): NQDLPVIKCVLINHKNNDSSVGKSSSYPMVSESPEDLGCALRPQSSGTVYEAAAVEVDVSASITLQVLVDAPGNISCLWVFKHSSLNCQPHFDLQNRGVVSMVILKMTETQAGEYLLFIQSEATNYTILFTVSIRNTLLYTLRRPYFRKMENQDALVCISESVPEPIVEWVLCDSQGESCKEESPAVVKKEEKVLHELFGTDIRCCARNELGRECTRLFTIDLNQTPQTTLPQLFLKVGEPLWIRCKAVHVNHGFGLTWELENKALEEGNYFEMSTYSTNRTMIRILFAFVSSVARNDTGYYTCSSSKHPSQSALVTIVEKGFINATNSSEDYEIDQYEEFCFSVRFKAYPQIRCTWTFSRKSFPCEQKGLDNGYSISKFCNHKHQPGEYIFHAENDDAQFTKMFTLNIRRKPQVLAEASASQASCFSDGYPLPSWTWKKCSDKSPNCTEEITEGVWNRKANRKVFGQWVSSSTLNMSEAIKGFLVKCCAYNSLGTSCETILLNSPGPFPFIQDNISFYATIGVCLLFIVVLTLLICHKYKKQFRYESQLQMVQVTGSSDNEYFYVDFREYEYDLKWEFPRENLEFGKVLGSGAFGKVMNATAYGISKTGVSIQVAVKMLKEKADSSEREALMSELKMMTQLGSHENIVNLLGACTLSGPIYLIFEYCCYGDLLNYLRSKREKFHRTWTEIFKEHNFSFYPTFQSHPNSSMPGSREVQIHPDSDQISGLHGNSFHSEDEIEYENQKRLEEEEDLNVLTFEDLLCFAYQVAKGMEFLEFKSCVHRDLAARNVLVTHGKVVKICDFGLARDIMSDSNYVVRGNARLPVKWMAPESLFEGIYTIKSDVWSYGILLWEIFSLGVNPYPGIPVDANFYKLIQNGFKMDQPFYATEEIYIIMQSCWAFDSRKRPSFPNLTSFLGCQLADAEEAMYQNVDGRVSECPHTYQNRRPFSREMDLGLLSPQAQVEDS

By IC50 is commonly meant the concentration that inhibits the measured activity by half. `Clc1cnc2[nH]cc(Cc3ccc(NCc4ccc(Cl)nc4)nc3)c2c1` [Compound P-2003]: in data set [1], the IC50 was under 0.1 µM. In addition, in data set [2], the “turbidity threshold (L, M, H) 1.4” value is reported as “H (high solubility if the threshold concentration is >250 μM)”; the “turbidity threshold (L, M, H) 4.5” value is listed as “M (moderate solubility if the threshold concentration is 31.3 μM to 250 μM)”; the “turbidity threshold (L, M, H) 6.8” value is given as “L (low solubility if the threshold concentration is <31.3 μM)”; the “turbidity threshold (L, M, H) 7.4” value is “L (low solubility if the threshold concentration is <31.3 μM)”. Besides, the IC50 in data set [3] (read-out: Cyp IC50 (μM) 2C19) was 5 to 10 µM.

`Fc1ccc(CNc2ccc(Cc3c[nH]c4ncc(Cl)cc34)cn2)cn1` [Compound P-2004, [5-(5-chloro-1H-pyrrolo[2,3-b]pyridin-3-ylmethyl)-pyridin-2-yl]-(6-fluoro-pyridin-3-ylmethyl)-amine] gave an IC50 in data set [1] of under 0.1 µM. Besides, in data set [2], the “turbidity threshold (L, M, H) 1.4” value is “H (high solubility if the threshold concentration is >250 μM)”; the “turbidity threshold (L, M, H) 4.5” value was “M (moderate solubility if the threshold concentration is 31.3 μM to 250 μM)”; the “turbidity threshold (L, M, H) 6.8” value is listed as “M (moderate solubility if the threshold concentration is 31.3 μM to 250 μM)”; the “turbidity threshold (L, M, H) 7.4” value is “M (moderate solubility if the threshold concentration is 31.3 μM to 250 μM)”. This molecule gave an IC50 in data set [3] of 5 to 10 µM.

With `Cc1cnc2[nH]cc(Cc3ccc(NCc4ccc(C(F)(F)F)nc4)nc3)c2c1` [Compound P-2019, [5-(5-Methyl-1H-pyrrolo[2,3-b]pyridin-3-ylmethyl)-pyridin-2-yl]-(6-trifluoromethyl-pyridin-3-ylmethyl)-amine], the IC50 in data set [1] was under 0.1 µM. In data set [2], the “turbidity threshold (L, M, H) 1.4” value is listed as “H (high solubility if the threshold concentration is >250 μM)”; the “turbidity threshold (L, M, H) 4.5” value is given as “M (moderate solubility if the threshold concentration is 31.3 μM to 250 μM)”; the “turbidity threshold (L, M, H) 6.8” value is listed as “M (moderate solubility if the threshold concentration is 31.3 μM to 250 μM)”; the “turbidity threshold (L, M, H) 7.4” value is given as “L (low solubility if the threshold concentration is <31.3 μM)”. The molecule also returned an IC50 in data set [3] of 5 to 10 µM.

In turn, `COc1ccc(CNc2ccc(Cc3c[nH]c4ncc(C)cc34)c(F)n2)cn1` [Compound P-2029, [6-Fluoro-5-(5-methyl-1H-pyrrolo[2,3-b]pyridin-3-ylmethyl)-pyridin-2-yl]-(6-methoxy-pyridin-3-ylmethyl)-amine] came in with an IC50 in data set [1] of under 0.1 µM. Besides, in data set [2], the “turbidity threshold (L, M, H) 1.4” value is “H (high solubility if the threshold concentration is >250 μM)”; the “turbidity threshold (L, M, H) 4.5” value is given as “M (moderate solubility if the threshold concentration is 31.3 μM to 250 μM)”; the “turbidity threshold (L, M, H) 6.8” value is listed as “M (moderate solubility if the threshold concentration is 31.3 μM to 250 μM)”; the “turbidity threshold (L, M, H) 7.4” value is “M (moderate solubility if the threshold concentration is 31.3 μM to 250 μM)”. For the same molecule, in data set [3] (read-out: Cyp IC50 (μM) 2C19), the IC50 is under 5 µM.

With `COc1cnc2[nH]cc(Cc3ccc(NCc4ccc(OC)nc4)nc3F)c2c1` [Compound P-2030, [6-Fluoro-5-(5-methoxy-1H-pyrrolo[2,3-b]pyridin-3-ylmethyl)-pyridin-2-yl]-(6-methoxy-pyridin-3-ylmethyl)-amine], the 50% inhibitory concentration (IC50) in data set [1] was under 0.1 µM. Besides, in data set [2], the “turbidity threshold (L, M, H) 1.4” value is “H (high solubility if the threshold concentration is >250 μM)”; the “turbidity threshold (L, M, H) 4.5” value is recorded as “M (moderate solubility if the threshold concentration is 31.3 μM to 250 μM)”; the “turbidity threshold (L, M, H) 6.8” value is given as “M (moderate solubility if the threshold concentration is 31.3 μM to 250 μM)”; the “turbidity threshold (L, M, H) 7.4” value is “L (low solubility if the threshold concentration is <31.3 μM)”. For the same molecule, the IC50 in data set [3] (read-out: Cyp IC50 (μM) 2C19) is under 5 µM.

Consider `Cc1cnc2[nH]cc(Cc3ccc(NCc4ccc(C(F)(F)F)nc4)nc3F)c2c1` [Compound P-2031, [6-Fluoro-5-(5-methyl-1H-pyrrolo[2,3-b]pyridin-3-ylmethyl)-pyridin-2-yl]-(6-trifluoromethyl-pyridin-3-ylmethyl)-amine], for which the IC50 in data set [1] was under 0.1 µM. For the same molecule, in data set [2], the “turbidity threshold (L, M, H) 1.4” value was “M (moderate solubility if the threshold concentration is 31.3 μM to 250 μM)”; the “turbidity threshold (L, M, H) 4.5” value is recorded as “L (low solubility if the threshold concentration is <31.3 μM)”; the “turbidity threshold (L, M, H) 6.8” value is “L (low solubility if the threshold concentration is <31.3 μM)”; the “turbidity threshold (L, M, H) 7.4” value is “L (low solubility if the threshold concentration is <31.3 μM)”.

Take `COc1cnc2[nH]cc(Cc3ccc(NCc4ccc(Cl)cc4)nc3F)c2c1` [Compound P-2032, (4-Chloro-benzyl)-[6-fluoro-5-(5-methoxy-1H-pyrrolo[2,3-b]pyridin-3-ylmethyl)-pyridin-2-yl]-amine]: the IC50 in data set [1] was under 0.1 µM. Besides, in data set [2], the “turbidity threshold (L, M, H) 1.4” value was “M (moderate solubility if the threshold concentration is 31.3 μM to 250 μM)”; the “turbidity threshold (L, M, H) 4.5” value is reported as “L (low solubility if the threshold concentration is <31.3 μM)”; the “turbidity threshold (L, M, H) 6.8” value was “L (low solubility if the threshold concentration is <31.3 μM)”; the “turbidity threshold (L, M, H) 7.4” value is on record as “L (low solubility if the threshold concentration is <31.3 μM)”.

In turn, `COc1cnc2[nH]cc(Cc3ccc(NCc4ccccc4Cl)nc3F)c2c1` [Compound P-2034, (2-chloro-benzyl)-[6-fluoro-5-(5-methoxy-1H-pyrrolo[2,3-b]pyridin-3-ylmethyl)-pyridin-2-yl]-amine] gave an IC50 in data set [1] of under 0.1 µM.

In data set [1], `COc1ccnc2[nH]cc(Cc3ccc(NCc4ccc(Cl)cc4)nc3F)c12` [Compound P-2037, (4-Chloro-benzyl)-[6-fluoro-5-(4-methoxy-1H-pyrrolo[2,3-b]pyridin-3-ylmethyl)-pyridin-2-yl]-amine] returned an IC50 of under 0.1 µM. In data set [2], the “turbidity threshold (L, M, H) 1.4” value was “M (moderate solubility if the threshold concentration is 31.3 μM to 250 μM)”; the “turbidity threshold (L, M, H) 4.5” value was “L (low solubility if the threshold concentration is <31.3 μM)”; the “turbidity threshold (L, M, H) 6.8” value is recorded as “L (low solubility if the threshold concentration is <31.3 μM)”; the “turbidity threshold (L, M, H) 7.4” value was “L (low solubility if the threshold concentration is <31.3 μM)”. For the same molecule, in data set [3] (read-out: Cyp IC50 (μM) 2C19), the IC50 was under 5 µM.

In turn, `COc1ccc(CNc2ncc(Cc3c[nH]c4ncc(Cl)cc34)cn2)cn1` [Compound P-2038, [5-(5-Chloro-1H-pyrrolo[2,3-b]pyridin-3-ylmethyl)-pyrimidin-2-yl]-(6-methoxy-pyridin-3-ylmethyl)-amine] registered an IC50 in data set [1] of under 0.1 µM. Besides, in data set [2], the “turbidity threshold (L, M, H) 1.4” value was “H (high solubility if the threshold concentration is >250 μM)”; the “turbidity threshold (L, M, H) 4.5” value is recorded as “L (low solubility if the threshold concentration is <31.3 μM)”; the “turbidity threshold (L, M, H) 6.8” value is given as “L (low solubility if the threshold concentration is <31.3 μM)”; the “turbidity threshold (L, M, H) 7.4” value is “L (low solubility if the threshold concentration is <31.3 μM)”. Besides, the IC50 in data set [3] (read-out: Cyp IC50 (μM) 2C19) is over 10 µM.

`Fc1nc(NCc2ccc(Cl)cn2)ccc1Cc1c[nH]c2ncccc12` [Compound P-2044, (5-Chloro-pyridin-2-ylmethyl)-[6-fluoro-5-(1H-pyrrolo[2,3-b]pyridin-3-ylmethyl)-pyridin-2-yl]-amine] returned an IC50 in data set [1] of over 0.1 µM.

On to `CCS(=O)(=O)Nc1ccccc1CNc1ccc(Cc2c[nH]c3ncc(C)cc23)c(F)n1` [Compound P-2198, Ethanesulfonic acid (2-{[6-fluoro-5-(5-methyl-1H-pyrrolo[2,3-b]pyridin-3-ylmethyl)-pyridin-2-ylamino]-methyl}-phenyl)-amide], for which, in data set [2], the “turbidity threshold (L, M, H) 1.4” value is given as “M (moderate solubility if the threshold concentration is 31.3 μM to 250 μM)”; the “turbidity threshold (L, M, H) 4.5” value is listed as “L (low solubility if the threshold concentration is <31.3 μM)”; the “turbidity threshold (L, M, H) 6.8” value is listed as “L (low solubility if the threshold concentration is <31.3 μM)”; the “turbidity threshold (L, M, H) 7.4” value is on record as “L (low solubility if the threshold concentration is <31.3 μM)”. Besides, in data set [3] (read-out: Cyp IC50 (μM) 2C19), the IC50 was under 5 µM.
